Experiments:
Assay in all cases: Test D controlled growth environment herbicide test, pre- and postemergence
Type in all cases: in vivo
[1] = test system: pigweed (Amaranthus retroflexus)
Procedure, shortened: (§1)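 Pre-emergence: seeds sown in silt loam soil were sprayed with compound in a non-phytotoxic solvent mix containing surfactant. Post-emergence: plants at 2 to 18 cm (1- to 4-leaf stage) in peat moss/vermiculite medium got the same formulation. Visual 0–100 rating versus controls after 14 to 21 d.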

[2] = test system: bluegrass (annual bluegrass, Poa annua)
Procedure, shortened: as §1

[3] = test system: canarygrass (Phalaris minor)
Procedure, shortened: as §1

[4] = test system: oat, wild (wild oat, Avena fatua)
Procedure, shortened: as §1

[5] = test system: blackgrass (Alopecurus myosuroides)
Procedure, shortened: as §1

[6] = test system: field violet (Viola arvensis)
Procedure, shortened: as §1

[7] = test system: barley, spring (spring barley, Hordeum vulgare)
Procedure, shortened: as §1

[8] = test system: wheat, spring (spring wheat, Triticum aestivum)
Procedure, shortened: as §1

[9] = test system: buckwheat, wild (wild buckwheat, Polygonum convolvulus)
Procedure, shortened: as §1

[10] = test system: ryegrass, Italian (Italian ryegrass, Lolium multiflorum)
Procedure, shortened: as §1

[11] = test system: foxtail, green (green foxtail, Setaria viridis)
Procedure, shortened: as §1

[12] = test system: radish, wild (wild radish, Raphanus raphanistrum)
Procedure, shortened: as §1

[13] = test system: chamomile (scentless chamomile, Matricaria inodora)
Procedure, shortened: as §1

[14] = Postemergence, 31 g ai/ha, scale 0 to 100 (0 no effect, 100 complete control)
[15] = Postemergence, 125 g ai/ha, visual rating on scale 0 (no effect) to 100 (complete control), 14 to 21 d
[16] = Postemergence, 250 g ai/ha, scale 0 to 100 (0 no effect, 100 complete control)
[17] = Preemergence, 125 g ai/ha, scale 0 to 100 (0 no effect, 100 complete control)
[18] = Preemergence, 250 g ai/ha, scale 0 to 100 (0 no effect, 100 complete control)
[19] = postemergence, 62 g ai/ha, scale 0 to 100, 0 no effect, 100 complete control
[20] = Preemergence, 62 g ai/ha, scale 0 to 100 (0 no effect, 100 complete control)

## CC(=O)Oc1c(C)nn(C)c(=O)c1-c1c(C)cc(C)c2ccccc12 [Compound 153]
[1]; [14]
  Pigweed plant response rating: 80
[1]; [15]
  Plant response rating, Pigweed: 80
[1]; [16]
  Plant response rating, Pigweed: 85
[1]; Preemergence, 31 g ai/ha
  Plant response rating (scale of 0 to 100), Pigweed: 100
[1]; Preemergence, 62 g ai/ha
  Plant response rating (scale of 0 to 100), Pigweed: 100
[1]; [17]
  Plant response rating, Pigweed: 100
[1]; [18]
  Plant response rating, Pigweed: 100
[1]; [19]
  Plant response rating, Pigweed: 75
[2]; [14]
  Bluegrass plant response rating: 15
[2]; [15]
  Plant response rating, Bluegrass: 30
[2]; [16]
  Plant response rating, Bluegrass: 40
[2]; Preemergence, 31 g ai/ha
  Plant response rating (scale of 0 to 100), Bluegrass: 70
[2]; [20]
  Plant response rating, Bluegrass: 75
[2]; [17]
  Plant response rating, Bluegrass: 75
[2]; [18]
  Plant response rating, Bluegrass: 75
[2]; [19]
  Plant response rating, Bluegrass: 15
[3]; [14]
  Canarygrass plant response rating: 75
[3]; [15]
  Plant response rating, Canarygrass: 80
[3]; [16]
  Plant response rating, Canarygrass: 85
[3]; Preemergence, 31 g ai/ha
  Plant response rating (scale of 0 to 100), Canarygrass: 85
[3]; Preemergence, 62 g ai/ha
  Plant response rating (scale of 0 to 100), Canarygrass: 90
[3]; [17]
  Plant response rating, Canarygrass: 95
[3]; [18]
  Plant response rating, Canarygrass: 100
[3]; [19]
  Plant response rating, Canarygrass: 75
[4]; [14]
  Oat, Wild plant response rating: 85
[4]; [15]
  Plant response rating, Oat, Wild: 90
[4]; [16]
  Plant response rating, Oat, Wild: 98
[4]; Preemergence, 31 g ai/ha
  Plant response rating (scale of 0 to 100), Oat, Wild: 80
[4]; Preemergence, 62 g ai/ha
  Plant response rating (scale of 0 to 100), Oat, Wild: 95
[4]; [17]
  Plant response rating, Oat, Wild: 98
[4]; [18]
  Plant response rating, Oat, Wild: 98
[4]; [19]
  Plant response rating, Oat, Wild: 85
[5]; [14]
  Blackgrass plant response rating: 65
[5]; [15]
  Plant response rating, Blackgrass: 75
[5]; [16]
  Plant response rating, Blackgrass: 80
[5]; Preemergence, 31 g ai/ha
  Plant response rating (scale of 0 to 100), Blackgrass: 75
[5]; [20]
  Plant response rating, Blackgrass: 80
[5]; [17]
  Plant response rating, Blackgrass: 85
[5]; [18]
  Plant response rating, Blackgrass: 95
[5]; [19]
  Plant response rating, Blackgrass: 70
[6]; [14]
  Field Violet plant response rating: 85
[6]; [15]
  Plant response rating, Field Violet: 95
[6]; [16]
  Plant response rating, Field Violet: 100
[6]; Preemergence, 31 g ai/ha
  Plant response rating (scale of 0 to 100), Field Violet: 100
[6]; Preemergence, 62 g ai/ha
  Plant response rating (scale of 0 to 100), Field Violet: 100
[6]; [17]
  Plant response rating, Field Violet: 100
[6]; [18]
  Plant response rating, Field Violet: 100
[6]; [19]
  Plant response rating, Field Violet: 90
[7]; [14]
  Barley, Spring plant response rating: 5
[7]; [15]
  Plant response rating, Barley, Spring: 15
[7]; [16]
  Plant response rating, Barley, Spring: 30
[7]; Preemergence, 31 g ai/ha
  Plant response rating (scale of 0 to 100), Barley, Spring: 0
[7]; [20]
  Plant response rating, Barley, Spring: 0
[7]; [17]
  Plant response rating, Barley, Spring: 25
[7]; [18]
  Plant response rating, Barley, Spring: 40
[7]; [19]
  Plant response rating, Barley, Spring: 5
[8]; [14]
  Wheat, Spring plant response rating: 20
[8]; [15]
  Plant response rating, Wheat, Spring: 40
[8]; [16]
  Plant response rating, Wheat, Spring: 50
[8]; Preemergence, 31 g ai/ha
  Plant response rating (scale of 0 to 100), Wheat, Spring: 25
[8]; Preemergence, 62 g ai/ha
  Plant response rating (scale of 0 to 100), Wheat, Spring: 45
[8]; [17]
  Plant response rating, Wheat, Spring: 70
[8]; [18]
  Plant response rating, Wheat, Spring: 85
[8]; [19]
  Plant response rating, Wheat, Spring: 30
[9]; [14]
  Buckwheat, Wild plant response rating: 95
[9]; [15]
  Plant response rating, Buckwheat, Wild: 100
[9]; [16]
  Plant response rating, Buckwheat, Wild: 100
[9]; Preemergence, 31 g ai/ha
  Plant response rating (scale of 0 to 100), Buckwheat, Wild: 40
[9]; [20]
  Plant response rating, Buckwheat, Wild: 60
[9]; [17]
  Plant response rating, Buckwheat, Wild: 85
[9]; [18]
  Plant response rating, Buckwheat, Wild: 85
[9]; [19]
  Plant response rating, Buckwheat, Wild: 95
[10]; [14]
  Ryegrass, Italian plant response rating: 80
[10]; [15]
  Plant response rating, Ryegrass, Italian: 90
[10]; [16]
  Plant response rating, Ryegrass, Italian: 90
[10]; Preemergence, 31 g ai/ha
  Plant response rating (scale of 0 to 100), Ryegrass, Italian: 100
[10]; Preemergence, 62 g ai/ha
  Plant response rating (scale of 0 to 100), Ryegrass, Italian: 100
[10]; [17]
  Plant response rating, Ryegrass, Italian: 100
[10]; [18]
  Plant response rating, Ryegrass, Italian: 100
[10]; [19]
  Plant response rating, Ryegrass, Italian: 90
[11]; [14]
  Foxtail, Green plant response rating: 80
[11]; [15]
  Plant response rating, Foxtail, Green: 85
[11]; [16]
  Plant response rating, Foxtail, Green: 85
[11]; Preemergence, 31 g ai/ha
  Plant response rating (scale of 0 to 100), Foxtail, Green: 75
[11]; Preemergence, 62 g ai/ha
  Plant response rating (scale of 0 to 100), Foxtail, Green: 75
[11]; [17]
  Plant response rating, Foxtail, Green: 100
[11]; [18]
  Plant response rating, Foxtail, Green: 100
[11]; [19]
  Plant response rating, Foxtail, Green: 80
[12]; [14]
  Radish, Wild plant response rating: 80
[12]; [15]
  Plant response rating, Radish, Wild: 100
[12]; [16]
  Plant response rating, Radish, Wild: 100
[12]; Preemergence, 31 g ai/ha
  Plant response rating (scale of 0 to 100), Radish, Wild: 80
[12]; Preemergence, 62 g ai/ha
  Plant response rating (scale of 0 to 100), Radish, Wild: 98
[12]; [17]
  Plant response rating, Radish, Wild: 98
[12]; [18]
  Plant response rating, Radish, Wild: 100
[12]; [19]
  Plant response rating, Radish, Wild: 85
[13]; [14]
  Chamomile plant response rating: 70
[13]; [15]
  Plant response rating, Chamomile: 100
[13]; [16]
  Plant response rating, Chamomile: 100
[13]; Preemergence, 31 g ai/ha
  Plant response rating (scale of 0 to 100), Chamomile: 100
[13]; Preemergence, 62 g ai/ha
  Plant response rating (scale of 0 to 100), Chamomile: 100
[13]; [17]
  Plant response rating, Chamomile: 100
[13]; [18]
  Plant response rating, Chamomile: 100
[13]; [19]
  Plant response rating, Chamomile: 95

Source: US10597388B2, “Pyridazinone herbicides” (FMC CORPORATION, priority 2014, dated 2020)
